This is an account of results in US9561231B2 (AbbVie Inc., priority 2012, dated 2017).

The target of test [1] is T1, first (BD1: amino acids K57-E168) bromodomain of BRD4 (Homo sapiens, UniProt O60885).
T1 construct: His-tagged first (BD1: amino acids K57-E168)
Nature of the test: TR-FRET bromodomain binding assay, BRD4 BD1. The following applies: Ki calculated from IC50, probe Kd and probe concentration, read-out: TR-FRET Binding Ki: BRD4 (BDI_K57-E168). The procedure, abridged:
(§1)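 His-tagged BRD4 bromodomain competed against an Alexa647-labeled BET-inhibitor probe by TR-FRET in 20 mM sodium phosphate pH 6.0, 50 mM NaCl, 1 mM EDTA, 0.01% Triton X-100, 1 mM DTT.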

Test [2] deals with T2, second (BD2: amino acids E352-E168) bromodomain of BRD4 (Homo sapiens, UniProt O60885).
T2 construct: protocol
Description: TR-FRET bromodomain binding assay, BRD4 BD2. The following applies: Ki calculated from IC50, probe Kd and probe concentration, read-out: TR-FRET Binding Ki: BRD4 (BDII_E352-M457). The procedure, abridged:
as §1

The subject of test [3] is breast cancer cell line MX-1. Nature of the test: MX-1 cell line proliferation assay (3-day). Type of test: cell-based. As to conditions: Homo sapiens, MX1, MX-1 cells, Cell Titer Glo, read-out: Cellular proliferation: EC50. The procedure, abridged: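 MX-1 cells in RPMI/10% FBS, plated 5000/well overnight, then exposed to compound at final 3 to 0.0001 μM (3-fold series) for 3 days at 37° C. Cell Titer Glo luminescence normalized to DMSO-treated cells; EC50 from sigmoidal curve fit.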

The test system of test [4] is LPS induced IL-6 production. Description: LPS (lipopolysaccharide) induced IL-6 production mouse assay. The following applies: 1 h before LPS 2.5 mg/kg i.p., serum IL-6 2 h after LPS, p<0.05.
Description: Severe combined immunodeficient female mice (5 per group) received an intraperitoneal challenge of lipopolysaccharide (2.5 mg/kg, L2630 E. coli 0111:B4) one hour after oral administration of compounds. Mice were euthanized 2 hours after lipopolysaccharide injection, blood was removed by cardiac puncture, and then the serum harvested from the blood samples was frozen at −80° C. On the day of the assay the serum samples were brought to room temperature and then diluted 1:20 in phosphate-buffered saline containing 2% bovine serum albumin. Interleukin-6 measurements were performed using a cytokine assay from Meso Scale Discovery (Gaithersburg, Md.) for mouse serum analysis according to the manufacturer's protocol and read on a SECTOR Imager 6000 (Meso Scale Discovery, Gaithersburg, Md.) instrument. Statistical analysis was performed using Prism software (version 5.0) incorporating Dunnett's one way ANOVA. The IL-6 mean and standard deviation of the group of vehicle treated animals were compared with the IL-6 mean and standard deviation of the group treated with drug. A p value <0.05 means that there is less than a 5% probability that the mean values in the two groups are equal.
Setting [5] is: TR-FRET assay protocol (A-G, compound concentration range).
Setting [6] is: TR-FRET assay protocol (D, E or G) per compound.

SMILES strings stand for the structures. Like-named read-outs stand apart in the source and are kept apart here. Some results are limits rather than exact numbers.

As usually defined, the Ki is the equilibrium dissociation constant of an inhibitor or competing ligand from its target. Consider `COc1cc(=O)n(C)nc1-c1cc(NS(C)(=O)=O)ccc1Oc1ccccc1` [Example 22, N-[3-(4-methoxy-1-methyl-6-oxo-1,6-dihydropyridazin-3-yl)-4-phenoxyphenyl]methanesulfonamide], for which the Ki in test [1] (setting [5]) was 0.258 µM; in test [2] (setting [5]), 0.0519 µM. In test [3] (72 h incubation), the EC50 worked out at 0.73 µM. Further, the “Inhibition of LPS induced IL-6 production, % inhibition” value (shortened to “Inhibition … % inhibition”) in test [4] (50 mg/kg oral) is recorded as 53.9 @ 50 mg/kg %.

`Cn1cc(-c2cc(NS(C)(=O)=O)ccc2Oc2ccc(Cl)cc2)ccc1=O` [Example 233, N-[4-(4-chlorophenoxy)-3-(1-methyl-6-oxo-1,6-dihydropyridin-3-yl)phenyl]methanesulfonamide]: the Ki is 0.0192 µM in test [1] (setting [5]) and 0.11 µM in test [2] (setting [5]). For the same molecule, in test [3] (72 h incubation), the EC50 came out at 0.423 µM. The “Inhibition … % inhibition” value in test [4] (30 mg/kg oral) is listed as 75.9 @ 30 mg/kg %.

As for `[2H]C([2H])(C)Oc1cc(=O)n(C)cc1-c1cc(NS(=O)(=O)CC)ccc1Oc1ccc(F)cc1F` [Example 333, N-[4-(2,4-difluorophenoxy)-3-{4-[(1,1-^2H2)ethyloxy]-1-methyl-6-oxo-1,6-dihydropyridin-3-yl}phenyl]ethanesulfonamide], in test [4] (3 mg/kg oral), the “Inhibition … % inhibition” value is 63.6 @ 3 mg/kg %.

`CCS(=O)(=O)Nc1ccc(Oc2ccc(F)cc2F)c(-c2cn(C)c(=O)cc2-c2ccco2)c1` [Example 392, N-{4-(2,4-difluorophenoxy)-3-[4-(furan-2-yl)-1-methyl-6-oxo-1,6-dihydropyridin-3-yl]phenyl}ethanesulfonamide]: the values for the Ki in test [1] (setting [6]) and in test [2] (setting [6]) were 0.022 µM and 0.00429 µM, respectively. Besides, the EC50 in test [3] (72 hours with compound) worked out at 0.0692 µM.

`CCS(=O)(=O)Nc1ccc(Oc2ccc(F)cc2F)c(-c2cn(C)c(=O)cc2-c2ccoc2)c1` [Example 393, N-{4-(2,4-difluorophenoxy)-3-[4-(furan-3-yl)-1-methyl-6-oxo-1,6-dihydropyridin-3-yl]phenyl}ethanesulfonamide]: the Ki is 0.0119 µM in test [1] (setting [6]) and 0.00249 µM in test [2] (setting [6]). In addition, in test [3] (72 hours with compound), the EC50 came out at 0.0707 µM.

For the molecule `CCOc1cc(=O)n(C)cc1-c1cc(NS(=O)(=O)CC)ccc1O[C@H]1CC[C@H](NC(=O)OC(C)(C)C)CC1` [Example 395, tert-butyl(trans-4-{2-(4-ethoxy-1-methyl-6-oxo-1,6-dihydropyridin-3-yl)-4-[(ethylsulfonyl)amino]phenoxy}cyclohexyl)carbamate], the values for the Ki in test [1] (setting [6]) and in test [2] (setting [6]) were 0.105 µM and 0.221 µM, respectively. Moreover, in test [3] (72 hours with compound), the EC50 amounted to 0.479 µM.

Turning to `CCOc1cc(=O)n(C)cc1-c1cc(NS(=O)(=O)CC)ccc1Oc1ccc(F)cc1` [Example 396, N-[3-(4-ethoxy-1-methyl-6-oxo-1,6-dihydropyridin-3-yl)-4-(4-fluorophenoxy)phenyl]ethanesulfonamide], the Ki was 0.00954 µM in test [1] (setting [6]) and 0.00317 µM in test [2] (setting [6]). In addition, the EC50 in test [3] (72 hours with compound) is 0.0156 µM.

Consider `CCOc1cc(=O)n(C)cc1-c1cc(S(=O)(=O)N2CCc3ccccc32)ccc1OCC1CC1` [Example 397, 5-[2-(cyclopropylmethoxy)-5-(2,3-dihydro-1H-indol-1-ylsulfonyl)phenyl]-4-ethoxy-1-methylpyridin-2(1H)-one], for which the Ki in test [1] (setting [6]) was 0.0752 µM; in test [2] (setting [6]) it was 0.00884 µM. The EC50 in test [3] (72 hours with compound) stood at 0.0866 µM.

For `CCS(=O)(=O)Nc1ccc(Oc2ccc(F)cc2F)c(-c2cn(C)c(=O)cc2OCC2CCNCC2)c1` [Example 399, N-{4-(2,4-difluorophenoxy)-3-[1-methyl-6-oxo-4-(piperidin-4-ylmethoxy)-1,6-dihydropyridin-3-yl]phenyl}ethanesulfonamide], the Ki in test [1] (setting [6]) was 0.0311 µM; in test [2] (setting [6]), 0.0201 µM. Besides, in test [3] (72 hours with compound), the EC50 was more than 3 µM.

Turning to `CCOc1cc(=O)n(C)cc1-c1cc(NS(=O)(=O)CC)ccc1Oc1ccc(F)c(F)c1` [Example 401, N-[4-(3,4-difluorophenoxy)-3-(4-ethoxy-1-methyl-6-oxo-1,6-dihydropyridin-3-yl)phenyl]ethanesulfonamide], the Ki in test [1] (setting [6]) is 0.0198 µM; in test [2] (setting [6]), 0.00499 µM. The EC50 in test [3] (72 hours with compound) amounted to 0.0251 µM.

As for `CCOc1cc(=O)n(C)cc1-c1cc(NS(=O)(=O)CC)ccc1Oc1cc(F)c(F)c(F)c1` [Example 402, N-[3-(4-ethoxy-1-methyl-6-oxo-1,6-dihydropyridin-3-yl)-4-(3,4,5-trifluorophenoxy)phenyl]ethanesulfonamide], the Ki is 0.0323 µM in test [1] (setting [6]) and 0.0166 µM in test [2] (setting [6]). The EC50 in test [3] (72 hours with compound) worked out at 0.0552 µM.

On to `CCOc1cc(=O)n(C)cc1-c1cc(NS(=O)(=O)CC)ccc1Oc1ccc(Cl)cc1F` [Example 403, N-[4-(4-chloro-2-fluorophenoxy)-3-(4-ethoxy-1-methyl-6-oxo-1,6-dihydropyridin-3-yl)phenyl]ethanesulfonamide], for which the figures for the inhibition constant (Ki) in test [1] (setting [6]) and in test [2] (setting [6]) were 0.0147 µM and 0.00138 µM, respectively. Further, in test [3] (72 hours with compound), the EC50 was 0.0239 µM.

Turning to `CCOc1cc(=O)n(C)cc1-c1cc(NS(=O)(=O)CC)ccc1Oc1c(F)cc(Cl)cc1F` [Example 404, N-[4-(4-chloro-2,6-difluorophenoxy)-3-(4-ethoxy-1-methyl-6-oxo-1,6-dihydropyridin-3-yl)phenyl]ethanesulfonamide], the Ki in test [1] (setting [6]) is 0.0118 µM; in test [2] (setting [6]), 0.00143 µM. In test [3] (72 hours with compound), the EC50 came to 0.0247 µM.

Turning to `CCOc1cc(=O)n(C)cc1-c1cc(NS(=O)(=O)CC)ccc1Oc1cccnc1` [Example 405, N-[3-(4-ethoxy-1-methyl-6-oxo-1,6-dihydropyridin-3-yl)-4-(pyridin-3-yloxy)phenyl]ethanesulfonamide], the inhibition constant (Ki) in test [1] (setting [6]) was 0.0363 µM; in test [2] (setting [6]) it was 0.00499 µM. The EC50 in test [3] (72 hours with compound) stood at 0.0502 µM.

As for `CCS(=O)(=O)Nc1ccc(Oc2ccc(F)cc2F)c(-c2cn(C)c(=O)cc2-c2ccc(C)s2)c1` [Example 407, N-{4-(2,4-difluorophenoxy)-3-[1-methyl-4-(5-methylthiophen-2-yl)-6-oxo-1,6-dihydropyridin-3-yl]phenyl}ethanesulfonamide], the Ki in test [1] (setting [6]) was 0.00692 µM; in test [2] (setting [6]), 0.00206 µM. Also, in test [3] (72 hours with compound), the EC50 stood at 0.0723 µM.

Regarding `CCOc1cc(=O)n(C)cc1-c1cc(NS(=O)(=O)CC)ccc1Oc1ccc(C#N)cc1F` [Example 408, N-[4-(4-cyano-2-fluorophenoxy)-3-(4-ethoxy-1-methyl-6-oxo-1,6-dihydropyridin-3-yl)phenyl]ethanesulfonamide], the values for the Ki in test [1] (setting [6]) and in test [2] (setting [6]) were 0.0451 µM and 0.0191 µM, respectively. In addition, in test [3] (72 hours with compound), the EC50 was 0.115 µM.

As to `CCOc1cc(=O)n(C)cc1-c1cc(NC(=O)c2cncs2)ccc1Oc1ccc(F)cc1F` [Example 411, N-[4-(2,4-difluorophenoxy)-3-(4-ethoxy-1-methyl-6-oxo-1,6-dihydropyridin-3-yl)phenyl]-1,3-thiazole-5-carboxamide], the results for the Ki in test [1] (setting [6]) and in test [2] (setting [6]) were 0.0613 µM and 0.047 µM, respectively. Further, in test [3] (72 hours with compound), the EC50 worked out at 0.254 µM.

With `CCOc1cc(=O)n(C)cc1-c1cc(NC(=O)c2cc(Cl)ccc2Cl)ccc1Oc1ccc(F)cc1F` [Example 412, 2,5-dichloro-N-[4-(2,4-difluorophenoxy)-3-(4-ethoxy-1-methyl-6-oxo-1,6-dihydropyridin-3-yl)phenyl]benzamide], the Ki in test [1] (setting [6]) was 0.0289 µM; in test [2] (setting [6]), 0.0119 µM. In addition, the EC50 in test [3] (72 hours with compound) was 0.251 µM.

For the molecule `CCOc1cc(=O)n(C)cc1-c1cc(NC(=O)c2ccccn2)ccc1Oc1ccc(F)cc1F` [Example 415, N-[4-(2,4-difluorophenoxy)-3-(4-ethoxy-1-methyl-6-oxo-1,6-dihydropyridin-3-yl)phenyl]pyridine-2-carboxamide], the Ki is 0.0405 µM in test [1] (setting [6]) and 0.0333 µM in test [2] (setting [6]). Also, the EC50 in test [3] (72 hours with compound) was found to be 0.279 µM.

Take `CCOc1cc(=O)n(C)cc1-c1cc(S(=O)(=O)N2CCc3ccccc32)ccc1Oc1ccc(F)cc1F` [Example 419, 5-[2-(2,4-difluorophenoxy)-5-(2,3-dihydro-1H-indol-1-ylsulfonyl)phenyl]-4-ethoxy-1-methylpyridin-2(1H)-one]: the figures for the Ki in test [1] (setting [6]) and in test [2] (setting [6]) were 0.0253 µM and 0.00284 µM, respectively. The EC50 in test [3] (72 hours with compound) was 1 µM.

Consider `CCOc1cc(=O)n(C)cc1-c1cc(N(C)S(=O)(=O)Cc2ccccc2)ccc1Oc1ccc(F)cc1F` [Example 420, N-[4-(2,4-difluorophenoxy)-3-(4-ethoxy-1-methyl-6-oxo-1,6-dihydropyridin-3-yl)phenyl]-N-methyl-1-phenylmethanesulfonamide], for which the Ki in test [1] (setting [6]) is more than 0.238 µM; in test [2] (setting [6]), 0.0221 µM. Besides, in test [3] (72 hours with compound), the EC50 is 0.832 µM.
